Columns and labels:
Type in all cases: functional
[1] = tested on: Pseudomonas aeruginosa; assay: Antibacterial activity against Pseudomonas aeruginosa ATCC 9027(Gram negative) strain.
[2] = tested on: Staphylococcus epidermidis; assay: Antibacterial activity against Staphylococcus epidermidis HCF Berset C (Gram positive) strain.
[3] = tested on: Staphylococcus aureus; assay: Antibacterial activity against Staphylococcus aureus ATCC 6538 (Gram positive) strain.
[4] = tested on: Staphylococcus epidermidis; assay: The compound was tested in vitro for antibacterial activity against Staphylococcus epidermidis CPHL A2 (Gram positive) strain
[5] = tested on: Escherichia coli; assay: Antibacterial activity against Escherichia coli ISF 432(Gram negative) strain.
[6] = tested on: Providencia stuartii; assay: Antibacterial activity against Providencia stuartii CNUR 5(Gram negative) strain.
[7] = tested on: Staphylococcus aureus; assay: Antibacterial activity against Staphylococcus aureus MPR 5 (Gram positive) strain.
[8] = tested on: Enterococcus faecalis; assay: Antibacterial activity against Streptococcus faecalis LEP Br (Gram positive) strain.
[9] = tested on: Klebsiella pneumoniae; assay: Antibacterial activity against Klebsiella pneumoniae ATCC 10031 (Gram negative) strain.
[10] = tested on: Enterobacter cloacae; assay: Antibacterial activity against Enterobacter cloacae OMNFI 174 (Gram negative) strain.
[11] = tested on: Escherichia coli; assay: Antibacterial activity against Escherichia coli ATCC 8739(Gram negative) strain.
[12] = tested on: Shigella; assay: Antibacterial activity against Shigella enteritidis (Gram negative) strain.
[13] = tested on: Acinetobacter calcoaceticus; assay: Antibacterial activity against Acinetobacter calcoaceticus OSMPV 113 (Gram negative) strain.
[14] = tested on: Staphylococcus epidermidis; assay: Antibacterial activity against Staphylococcus epidermidis CPHL A2 (Gram positive) strain, activity is expressed as log2MIC.
[15] = tested on: Staphylococcus epidermidis; assay: The compound was tested in vitro for antibacterial activity against Staphylococcus epidermidis CPHL A2 (Gram positive) strain.
[16] = tested on: Acinetobacter calcoaceticus; assay: The compound was tested for in vitro antibacterial activity against Acinetobacter calcoaceticus OSMPV 113(Gram negative) strain.
[17] = tested on: Pseudomonas aeruginosa; assay: The compound was tested for in vitro antibacterial activity against Pseudomonas aeruginosa ATCC 9027(Gram negative) strain.
[18] = tested on: Staphylococcus aureus; assay: The compound was tested for in vitro antibacterial activity against Staphylococcus aureus MPR 5 (Gram positive) strain.
[19] = tested on: Escherichia coli; assay: The compound was tested for in vitro antibacterial activity against Escherichia coli ATCC 8739 (Gram negative) strain.
[20] = tested on: Pseudomonas aeruginosa; assay: The compound was tested for in vitro antibacterial activity against Pseudomonas aeruginosa ATCC 9027 (Gram negative) strain.
[21] = tested on: Escherichia coli; assay: The compound was tested for in vitro antibacterial activity against Escherichia coli ISF 432 (Gram negative) strain.
[22] = tested on: Staphylococcus aureus; assay: The compound was tested for in vitro antibacterial activity against Staphylococcus aureus ATCC 6538 (Gram positive) strain.
[23] = tested on: Acinetobacter calcoaceticus; assay: The compound was tested for in vitro antibacterial activity against Acinetobacter calcoaceticus OSMPV 113 (Gram negative) strain.

SMILES | Log2 MIC [1] | Log2 MIC [2] | Log2 MIC [3] | Log2 MIC [4] | Log2 MIC [5] | Log2 MIC [6] | Log2 MIC [7] | Log2 MIC [8] | Log2 MIC [9] | Log2 MIC [10] | Log2 MIC [11] | Log2 MIC [12] | Log2 MIC [13] | Log2 MIC [14] | also measured
Cc1c(N2CCN(C)CC2)c(N)cc2c(=O)c(C(=O)O)cn(C3CC3)c12 | 6 | 7 | 8 | 7 | 12 | 6 | 8 | 5 | 12 | 10 | 12 | 11 |  |  | 
CC(=O)NC1CCN(c2c(N)cc3c(=O)c(C(=O)O)cn(C4CC4)c3c2C)C1 (stereo not given) | 3 | 3 | 3 | 3 | 10 | 2 | 3 | 1 | 9 | 5 | 10 | 5 | 5 |  | 
Cc1c(N2CCOCC2)c(N)cc2c(=O)c(C(=O)O)cn(C3CC3)c12 | 7 | 10 | 10 | 9 | 12 | 8 | 10 | 7 | 12 | 10 | 12 | 10 |  |  | 
Nc1cc2c(=O)c(C(=O)O)cn(-c3ccc(F)cc3)c2cc1N1CCSCC1 | 0 | 5 | 8 |  | 12 | 5 | 7 | 0 | 12 | 5 | 11 | 5 | 5 | 5 | 
CN1CCN(c2cc3c(cc2N)c(=O)c(C(=O)O)cn3-c2ccc(F)cc2)CC1 | 4 | 4 | 4 |  | 10 | 5 | 5 | 1 | 10 | 5 | 10 | 5 | 3 | 4 | 
Cc1c(N2CCC(O)CC2)c(N)cc2c(=O)c(C(=O)O)cn(C3CC3)c12 | 6 | 11 | 11 | 11 | 12 | 7 | 10 | 8 | 12 | 8 | 7 | 9 | 10 |  | 
CN1CCN(c2cc3c(cc2N)c(=O)c(C(=O)O)cn3C(C)(C)C)CC1 | 5 | 5 | 6 |  | 11 | 5 | 6 | 2 | 11 | 7 | 11 | 7 | 5 | 6 | 
Cc1c(N2Cc3ccccc3C2)c(N)cc2c(=O)c(C(=O)O)cn(C3CC3)c12 | 8 | 12 | 13 | 13 | 13 | 11 | 13 | 9 | 11 | 9 | 13 | 9 |  |  | 
CN1CCN(c2nc3c(c(N)c2N)c(=O)c(C(=O)O)cn3C2CC2)CC1 | 4 | 6 | 6 | 6 | 13 | 8 | 6 | 4 | 13 | 9 | 9 | 8 | 8 |  | 
CN1CCN(c2c(F)cc3c(=O)c(C(=O)O)cn4c3c2SCC4)CC1 [RUFLOXACIN] |  | 7 |  |  |  | 6 |  | 5 | 9 | 8 |  | 10 |  | 8 | Log2 MIC [18]: 8; Log2 MIC [19]: 9; Log2 MIC [20]: 5; Log2 MIC [21]: 9; Log2 MIC [22]: 8; Log2 MIC [23]: 7

More lines, main results first:

Log2 MIC [1] | Log2 MIC [2] | Log2 MIC [3] | Log2 MIC [4] | Log2 MIC [5] | Log2 MIC [6] | Log2 MIC [7] | Log2 MIC [8] | Log2 MIC [9] | Log2 MIC [10] | Log2 MIC [11] | Log2 MIC [12] | Log2 MIC [13] | Log2 MIC [14] | SMILES | also measured
0 | 0 | 0 |  | 7 | 0 | 0 | 0 | 6 | 0 | 7 | 0 | 0 | 0 | NCCSc1cc2c(cc1N)c(=O)c(C(=O)O)cn2C1CC1 | 
0 | 0 | 0 |  | 3 | 0 | 0 | 0 | 2 | 0 | 3 | 0 | 0 | 0 | CN1CCN(c2cc3c(c(N)c2N)c(=O)c(C(=O)O)cn3C2CC2)CC1 | 
0 | 0 | 0 | 0 | 5 | 0 | 0 | 0 | 5 | 0 | 5 | 0 | 0 |  | CC(=O)NC1CCN(c2cc3c(cc2N)c(=O)c(C(=O)O)cn3C2CC2)C1 (stereo not given) | 
0 | 1 | 0 |  | 6 | 1 | 0 | 0 | 6 | 3 | 6 | 3 | 0 |  | Nc1cc2c(=O)c(C(=O)O)cn(C3CC3)c2cc1Cl | Log2 MIC [15]: 0
0 | 3 | 5 | 3 | 7 | 1 | 5 | 1 | 8 | 1 | 2 | 1 | 3 |  | Cc1c(N2CCCC2)c(N)cc2c(=O)c(C(=O)O)cn(C3CC3)c12 | 
3 | 0 | 0 | 0 | 8 | 0 | 0 | 0 | 7 | 3 | 7 | 3 | 0 |  | Nc1cc2c(=O)c(C(=O)O)cn(C3CC3)c2cc1N1CCC(N)C1 (stereo not given) | 
7 | 10 | 11 | 10 | 12 | 6 | 11 | 8 | 12.5 | 9 | 9 | 10 | 10 |  | Cc1c(N2CCSCC2)c(N)cc2c(=O)c(C(=O)O)cn(C3CC3)c12 | 
7 | 7 | 7 | 7 | 12 | 6 | 7 | 5 | 12 | 10 | 10 | 11 | 6 |  | Cc1c(N2CCNC(C)C2)c(N)cc2c(=O)c(C(=O)O)cn(C3CC3)c12 (stereo not given) | 
11 |  |  | 11 |  | 11 |  | 8 | 12 |  |  |  | 11 | 11 | O=C(O)c1cn(C2CC2)c2cc(N3CCNCC3)c(F)cc2c1=O [CIPROFLOXACIN] | Log2 MIC [16]: 11; Log2 MIC [17]: 11

Source: ChEMBL document CHEMBL1130043, “Chemometric methodologies in a quantitative structure-activity relationship study: the antibacterial activity of 6-aminoquinolones” (1997)
